Experimental data published in US20060281700A1, “SYNERGISTIC MODULATION OF FLT3 KINASE USING AMINOPYRIMIDINES KINASE MODULATORS” (priority 2005, published 2006).
pIC50: −log10 of the molar value.

Target: T1, wild-type FLT3 phosphorylation in Baf3 FLT3 cells (Homo sapiens, UniProt P36888)
T1 sequence (P36888 27-993): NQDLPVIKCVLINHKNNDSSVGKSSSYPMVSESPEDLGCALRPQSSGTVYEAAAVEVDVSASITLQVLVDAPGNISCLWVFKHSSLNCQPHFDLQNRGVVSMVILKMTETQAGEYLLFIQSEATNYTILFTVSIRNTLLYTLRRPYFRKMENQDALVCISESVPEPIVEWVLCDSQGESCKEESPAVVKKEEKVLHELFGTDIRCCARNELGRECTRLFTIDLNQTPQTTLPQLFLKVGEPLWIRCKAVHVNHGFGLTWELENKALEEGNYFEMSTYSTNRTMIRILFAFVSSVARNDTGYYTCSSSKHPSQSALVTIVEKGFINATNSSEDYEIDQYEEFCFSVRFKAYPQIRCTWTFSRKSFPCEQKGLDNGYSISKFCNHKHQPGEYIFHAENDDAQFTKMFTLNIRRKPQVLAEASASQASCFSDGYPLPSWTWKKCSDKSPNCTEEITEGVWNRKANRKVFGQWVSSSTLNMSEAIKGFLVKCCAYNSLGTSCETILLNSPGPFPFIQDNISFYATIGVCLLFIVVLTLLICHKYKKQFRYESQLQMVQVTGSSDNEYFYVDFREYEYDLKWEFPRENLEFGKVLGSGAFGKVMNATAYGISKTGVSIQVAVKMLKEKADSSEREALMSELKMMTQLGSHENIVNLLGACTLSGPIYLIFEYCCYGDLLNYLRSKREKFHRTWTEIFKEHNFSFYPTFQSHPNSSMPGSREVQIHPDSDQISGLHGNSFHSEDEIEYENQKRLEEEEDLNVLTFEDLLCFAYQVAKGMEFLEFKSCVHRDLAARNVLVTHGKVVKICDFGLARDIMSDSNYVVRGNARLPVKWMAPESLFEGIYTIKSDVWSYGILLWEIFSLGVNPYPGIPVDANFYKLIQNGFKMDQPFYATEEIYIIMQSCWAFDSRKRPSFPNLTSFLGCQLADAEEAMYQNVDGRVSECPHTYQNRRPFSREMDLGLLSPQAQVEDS
Assay: Cell-Based FLT3 Receptor Elisa
Details: 1 hour compound, 100 ng/mL Flt ligand 10 min; uncertainty ±20%
Method: Cell-Based FLT3 Receptor Elisa
Specific cellular inhibition of FLT ligand-induced wild-type FLT3 phosphorylation was measured in the following manner: Baf3 FLT3 cells overexpressing the FLT3 receptor were obtained from Dr. Michael Heinrich (Oregon Health and Sciences University). The Baf3 FLT3 cell lines were created by stable transfection of parental Baf3 cells (a murine B cell lymphoma line dependent on the cytokine IL-3 for growth) with wild-type FLT3. Cells were selected for their ability to grow in the absence of IL-3 and in the presence of FLT3 ligand.
Baf3 cells were maintained in RPMI 1640 with 10% FBS, penn/strep and 10 ng/ml FLT ligand at 37° C., 5% CO2. To measure direct inhibition of the wild-type FLT3 receptor activity and phosphorylation a sandwich ELISA method was developed similar to those developed for other RTKs (see Sadick, M D, Sliwkowski, M X, Nuijens, A, Bald, L, Chiang, N, Lofgren, J A, Wong W L T. Analysis of Heregulin-Induced ErbB2 Phosphorylation with a High-Throughput Kinase Receptor Activation Enzyme-Linked Immunsorbent Assay, Analytical Biochemistry. 1996; 235:207-214 and Baumann C A, Zeng L, Donatelli R R, Maroney A C. Development of a quantitative, high-throughput cell-based enzyme-linked immunosorbent assay for detection of colony-stimulating factor-1 receptor tyrosine kinase inhibitors. J Biochem Biophys Methods. 2004; 60:69-79.). 200 μL of Baf3FLT3 cells (1×10^6/mL) were plated in 96 well dishes in RPMI 1640 with 0.5% serum and 0.01 ng/mL IL-3 for 16 hours prior to 1 hour compound or DMSO vehicle incubation. Cells were treated with 100 ng/mL Flt ligand (R&D Systems Cat# 308-FK) for 10 min. at 37° C. Cells were pelleted, washed and lysed in 100 ul lysis buffer (50 mM Hepes, 150 mM NaCl, 10% Glycerol, 1% Triton-X-100, 10 mM NaF, 1 mM EDTA, 1.5 mM MgCl2, 10 mM NaPyrophosphate) supplemented with phosphatase (Sigma Cat# P2850) and protease inhibitors (Sigma Cat #P8340). Lysates were cleared by centrifugation at 1000×g for 5 minutes at 4° C. Cell lysates were transferred to white wall 96 well microtiter (Costar #9018) plates coated with 50 ng/well anti-FLT3 antibody (Santa Cruz Cat# sc-480) and blocked with SeaBlock reagent (Pierce Cat#37527). Lysates were incubated at 4° C. for 2 hours. Plates were washed 3× with 200 ul/well PBS/0.1% Triton-X-100. Plates were then incubated with 1:8000 dilution of HRP-conjugated anti-phosphotyrosine antibody (Clone 4G10, Upstate Biotechnology Cat#16-105) for 1 hour at room temperature. Plates were washed 3× with 200 ul/well PBS/0.1% Triton-X-100. Signal detection with Super Signal Pico reagent (Pierce Cat#37070) was done according to manufacturer's instruction with a Berthold microplate luminometer. All data points are an average of triplicate samples. […] Inhibition and IC50 data analysis was done with GraphPad Prism using a non-linear regression fit with a multiparamater, sigmoidal dose-response (variable slope) equation.

SMILES | pIC50
CC(C)c1ccc(NC(=O)NC2CCN(c3ncnc(N)c3/C=N/OCC(=O)N3CCOCC3)C2)cc1 (centres unmarked) [Number 29, 1-(1-{6-Amino-5-[(2-morpholin-4-yl-2-oxo-ethoxyimino)-methyl]-pyrimidin-4-yl}-pyrrolidin-3-yl)-3-(4-isopropyl-phenyl)-urea] | 5.62
CO/N=C/c1c(N)ncnc1N1CCC(NC(=O)Nc2ccc(OC3CCCC3)nc2)C1 (centres unmarked) [Number 21, 1-{1-[6-Amino-5-(methoxyimino-methyl)-pyrimidin-4-yl]-pyrrolidin-3-yl}-3-(6-cyclopentyloxy-pyridin-3-yl)-urea] | 7.00
CO/N=C/c1c(N)ncnc1N1CCC(CC(=O)Nc2ccc(C(C)C)cc2)CC1 [Number 7, 2-{1-[6-Amino-5-(methoxyimino-methyl)-pyrimidin-4-yl]-piperidin-4-yl}-N-(4-isopropyl-phenyl)-acetamide] | 6.77
CO/N=C/c1c(N)ncnc1N1CCC(NC(=O)Nc2ccc(C3CCCCC3)cc2)C1 (centres unmarked) [Number 17, 1-{1-[6-Amino-5-(methoxyimino-methyl)-pyrimidin-4-yl]-pyrrolidin-3-yl}-3-(4-cyclohexyl-phenyl)-urea] | 6.52
CO/N=C/c1c(N)ncnc1N1CCC(NC(=O)Nc2ccc(N3CCOCC3)cc2)CC1 [Number 14, 1-{1-[6-Amino-5-(methoxyimino-methyl)-pyrimidin-4-yl]-piperidin-4-yl}-3-(4-morpholin-4-yl-phenyl)-urea] | 6.53
CO/N=C/c1c(N)ncnc1N1CCC(NC(=O)Nc2ccc(OC3CCC3)nc2)C1 (centres unmarked) [Number 11, 1-{1-[6-Amino-5-(methoxyimino-methyl)-pyrimidin-4-yl]-pyrrolidin-3-yl}-3-(6-cyclobutoxy-pyridin-3-yl)-urea] | 6.64
CO/N=C/c1c(N)ncnc1N1CCC(CC(=O)Nc2ccc(C(C)C)cc2)C1 (centres unmarked) [Number 6, 2-{1-[6-Amino-5-(methoxyimino-methyl)-pyrimidin-4-yl]-pyrrolidin-3-yl}-N-(4-isopropyl-phenyl)-acetamide] | 7.82
CO/N=C/c1c(N)ncnc1N1CCC(NC(=O)Nc2ccc(N3CCCC3)cc2)C1 (centres unmarked) [Number 20, 1-{1-[6-Amino-5-(methoxyimino-methyl)-pyrimidin-4-yl]-pyrrolidin-3-yl}-3-(4-pyrrolidin-1-yl-phenyl)-urea] | 6.52
CO/N=C/c1c(N)ncnc1N1CCC(NC(=O)Nc2ccc(OC(C)C)cc2)CC1 [Number 12, 1-{1-[6-Amino-5-(methoxyimino-methyl)-pyrimidin-4-yl]-piperidin-4-yl}-3-(4-isopropoxy-phenyl)-urea] | 6.66
CO/N=C/c1c(N)ncnc1N1CCC(NC(=O)Nc2ccc(Cl)cc2)C1 (centres unmarked) [Number 18, 1-{1-[6-Amino-5-(methoxyimino-methyl)-pyrimidin-4-yl]-pyrrolidin-3-yl}-3-(4-chloro-phenyl)-urea] | 6.51
CC(C)Oc1ccc(NC(=O)OC2CCN(c3ncnc(N)c3/C=N/OCCCN(C)C)CC2)cc1 [Number 4, (4-Isopropoxy-phenyl)-carbamic acid 1-{6-amino-5-[(3-dimethylamino-propoxyimino)-methyl]-pyrimidin-4-yl}-piperidin-4-yl ester] | 6.46
CO/N=C/c1c(N)ncnc1N1CCC(NC(=O)Nc2ccc(N3CCOCC3)cc2)C1 (centres unmarked) [Number 10, 1-{1-[6-Amino-5-(methoxyimino-methyl)-pyrimidin-4-yl]-pyrrolidin-3-yl}-3-(4-morpholin-4-yl-phenyl)-urea] | 5.89
CO/N=C/c1c(N)ncnc1N1CCC(NC(=O)Nc2ccc(N3CCCCC3)cc2)CC1 [Number 13, 1-{1-[6-Amino-5-(methoxyimino-methyl)-pyrimidin-4-yl]-piperidin-4-yl}-3-(4-piperidin-1-yl-phenyl)-urea] | 6.33
CO/N=C/c1c(N)ncnc1N1CCC(NC(=O)Nc2ccc(Oc3ccccc3)cc2)C1 (centres unmarked) [Number 19, 1-{1-[6-Amino-5-(methoxyimino-methyl)-pyrimidin-4-yl]-pyrrolidin-3-yl}-3-(4-phenoxy-phenyl)-urea] | 6.87
